Laboratory results as given in US11572590B2, “Methods for evaluating tumor cell spheroids using 3D microfluidic cell culture device” (Dana-Farber Cancer Institute, Inc., priority 2017, dated 2023).
Where two headings read alike, the source gives them in different places.

How the values were obtained:
Assay in all cases: SelectScreen Kinase Profiling, single point inhibition and IC50 for off-target kinases
Type in all cases: biochemical
off-target kinases [1] = target: T1, off-target kinases (Homo sapiens, UniProt Q9Y2U5); conditions: MAP3K2 (MEKK2), LanthaScreen Binding
T1 sequence (Q9Y2U5 1-619): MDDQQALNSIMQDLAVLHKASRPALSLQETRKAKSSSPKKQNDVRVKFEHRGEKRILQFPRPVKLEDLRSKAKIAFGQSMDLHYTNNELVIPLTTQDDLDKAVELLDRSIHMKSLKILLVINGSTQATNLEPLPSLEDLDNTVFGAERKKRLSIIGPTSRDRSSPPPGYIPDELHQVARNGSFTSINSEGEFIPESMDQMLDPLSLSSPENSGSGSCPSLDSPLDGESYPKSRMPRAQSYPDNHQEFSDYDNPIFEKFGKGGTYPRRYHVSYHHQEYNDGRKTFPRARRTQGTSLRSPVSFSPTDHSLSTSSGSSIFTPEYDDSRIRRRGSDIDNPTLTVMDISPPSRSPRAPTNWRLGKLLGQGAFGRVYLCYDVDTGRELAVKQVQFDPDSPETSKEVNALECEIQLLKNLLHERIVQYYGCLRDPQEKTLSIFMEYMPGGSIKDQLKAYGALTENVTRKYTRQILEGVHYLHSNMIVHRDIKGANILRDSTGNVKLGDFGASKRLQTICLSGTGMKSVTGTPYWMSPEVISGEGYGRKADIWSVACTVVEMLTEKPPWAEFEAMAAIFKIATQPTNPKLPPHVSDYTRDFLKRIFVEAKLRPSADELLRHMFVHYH

off-target kinases [2] = target: off-target kinases (Homo sapiens, UniProt P00533, L858R/T790M); conditions: EGFR (ErbB1) T790M L858R, mutant y, ZLYTE, ATP Km app
off-target kinases [3] = target: off-target kinases (Homo sapiens, UniProt Q9NYY3); conditions: PLK2, ATP Km app, ZLYTE
off-target kinases [4] = target: off-target kinases (Homo sapiens, UniProt Q96GD4); conditions: AURKB (Aurora B), ATP Km app, ZLYTE
Chain of off-target kinases (Homo sapiens, UniProt Q96GD4) (Q96GD4 whole entry): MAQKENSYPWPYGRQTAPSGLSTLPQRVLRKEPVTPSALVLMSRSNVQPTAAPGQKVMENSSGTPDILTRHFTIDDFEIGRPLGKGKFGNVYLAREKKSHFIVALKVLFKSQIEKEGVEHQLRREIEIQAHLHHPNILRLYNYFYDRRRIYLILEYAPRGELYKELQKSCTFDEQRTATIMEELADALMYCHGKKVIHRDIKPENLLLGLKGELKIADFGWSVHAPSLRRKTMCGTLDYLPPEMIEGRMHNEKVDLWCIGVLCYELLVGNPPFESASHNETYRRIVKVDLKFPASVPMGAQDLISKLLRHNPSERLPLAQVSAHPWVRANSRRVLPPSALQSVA

Chain of off-target kinases (Homo sapiens, UniProt P00533, L858R/T790M) (P00533 25-1210 T790M/L858R): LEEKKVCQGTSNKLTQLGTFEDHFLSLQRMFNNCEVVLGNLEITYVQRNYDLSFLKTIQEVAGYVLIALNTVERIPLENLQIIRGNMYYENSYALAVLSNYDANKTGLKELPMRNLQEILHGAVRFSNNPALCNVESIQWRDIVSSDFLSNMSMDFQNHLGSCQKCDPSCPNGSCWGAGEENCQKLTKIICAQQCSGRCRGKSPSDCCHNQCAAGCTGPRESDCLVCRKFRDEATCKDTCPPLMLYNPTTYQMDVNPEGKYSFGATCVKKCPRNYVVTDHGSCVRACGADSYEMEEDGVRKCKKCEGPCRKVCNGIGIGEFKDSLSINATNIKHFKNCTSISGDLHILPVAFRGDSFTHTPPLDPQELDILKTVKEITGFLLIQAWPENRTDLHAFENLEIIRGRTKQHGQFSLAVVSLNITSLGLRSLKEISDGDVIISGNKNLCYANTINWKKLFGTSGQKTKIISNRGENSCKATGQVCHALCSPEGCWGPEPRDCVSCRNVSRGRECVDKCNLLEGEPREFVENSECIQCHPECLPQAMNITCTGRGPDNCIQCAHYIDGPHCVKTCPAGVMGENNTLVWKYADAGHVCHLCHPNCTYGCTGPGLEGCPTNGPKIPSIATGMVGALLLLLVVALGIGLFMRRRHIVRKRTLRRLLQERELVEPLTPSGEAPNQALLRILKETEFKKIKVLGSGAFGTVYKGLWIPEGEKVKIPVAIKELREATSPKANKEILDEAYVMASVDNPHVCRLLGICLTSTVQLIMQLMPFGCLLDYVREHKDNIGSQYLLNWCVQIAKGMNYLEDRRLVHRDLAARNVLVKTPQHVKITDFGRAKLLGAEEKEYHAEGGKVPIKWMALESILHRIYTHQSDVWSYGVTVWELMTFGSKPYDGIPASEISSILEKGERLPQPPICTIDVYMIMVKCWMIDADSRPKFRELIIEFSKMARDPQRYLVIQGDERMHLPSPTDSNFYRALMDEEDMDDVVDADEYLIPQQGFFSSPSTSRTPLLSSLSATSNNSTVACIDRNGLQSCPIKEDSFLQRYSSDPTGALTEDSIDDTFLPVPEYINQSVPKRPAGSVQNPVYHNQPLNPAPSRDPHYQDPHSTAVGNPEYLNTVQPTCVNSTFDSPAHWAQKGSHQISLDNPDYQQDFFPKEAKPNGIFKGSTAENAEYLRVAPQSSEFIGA
Chain of off-target kinases (Homo sapiens, UniProt Q9NYY3) (Q9NYY3 whole entry): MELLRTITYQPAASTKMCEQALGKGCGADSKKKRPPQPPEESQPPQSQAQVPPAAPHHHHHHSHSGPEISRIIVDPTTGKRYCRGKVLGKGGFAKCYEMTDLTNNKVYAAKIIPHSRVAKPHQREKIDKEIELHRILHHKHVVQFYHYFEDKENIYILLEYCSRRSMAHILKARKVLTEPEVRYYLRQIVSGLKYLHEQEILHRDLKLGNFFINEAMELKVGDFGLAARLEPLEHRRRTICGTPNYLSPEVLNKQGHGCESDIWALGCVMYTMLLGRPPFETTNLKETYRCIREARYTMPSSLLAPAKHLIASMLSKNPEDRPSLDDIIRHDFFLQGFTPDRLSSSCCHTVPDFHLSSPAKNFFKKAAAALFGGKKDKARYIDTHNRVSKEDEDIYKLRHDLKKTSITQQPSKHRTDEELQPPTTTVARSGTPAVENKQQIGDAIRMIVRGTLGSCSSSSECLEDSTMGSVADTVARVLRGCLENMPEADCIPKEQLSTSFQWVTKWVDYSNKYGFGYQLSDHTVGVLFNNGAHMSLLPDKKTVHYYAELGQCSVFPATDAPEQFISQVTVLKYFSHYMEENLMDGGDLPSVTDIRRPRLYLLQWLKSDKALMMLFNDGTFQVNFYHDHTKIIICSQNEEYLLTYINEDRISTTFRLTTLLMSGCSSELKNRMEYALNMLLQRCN

**Q.** What does the source list for `N#Cc1cc(-c2ncnc(Nc3ccc(N4CCN(C5COC5)CC4)cc3)n2)ccc1OC1CCOCC1` [Compound 1, 5-(4-((4-(4-(oxetan-3-yl)piperazin-1-yl)phenyl)amino)-1,3,5-triazin-2-yl)-2-((tetrahydro-2H-pyran-4-yl)oxy)benzonitrile]?
**A.** inhibition (off-target kinases [1]; read-out: % Inhibition 1): 11%; inhibition (off-target kinases [1]; read-out: % Inhibition 2): 9%; inhibition (off-target kinases [1]; read-out: % Inhibition Avg): 10%; inhibition (off-target kinases [2]; read-out: % Inhibition 1): 34%; inhibition (off-target kinases [2]; read-out: % Inhibition 2): 29%; inhibition (off-target kinases [2]; read-out: % Inhibition Avg): 31%; inhibition (off-target kinases [3]; read-out: % Inhibition 1): 60%; inhibition (off-target kinases [3]; read-out: % Inhibition 2): 64%; inhibition (off-target kinases [3]; read-out: % Inhibition Avg): 62%; inhibition (off-target kinases [4]; read-out: % Inhibition 1): 54%; inhibition (off-target kinases [4]; read-out: % Inhibition 2): 48%; inhibition (off-target kinases [4]; read-out: % Inhibition Avg): 51%
